Measurements from patent US10517889B2, “Modulators of SMAD7 expression” (Ionis Pharmaceuticals, Inc., priority 2017, dated 2019).
“And” between values parts separate entries of the source, which are not always exact repeats. Equal entries are not always repeated. Strand notation (5' to 3'): a small letter for the sugar, then the base; units joined by * are phosphorothioate-linked, units joined directly phosphodiester-linked; [ ] holds rarer units or linkages, { } end groups; capitals alone tell only the bases. k = constrained ethyl (cEt); [5mC] = 5-methylcytosine; d = 2'-deoxy (DNA)

Experiments:
[1] = test system: human SMAD7 mRNA; assay: Dose-dependent inhibition of human SMAD7 mRNA expression in Hep3B cells (Example 3, Study 1 and 2); type: cell-based; settings: electroporation; for % inhibition of SMAD7 mRNA expression: approximately 16 hours; for IC50: Study 2 (740-20000 nM)
Outline: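 Hep3B cells, 20,000 per well, electroporated with antisense oligonucleotide at 0.31, 1.25, 5.00 or 20.00 μM (first series) or 0.74, 2.22, 6.67 or 20.00 μM (second series). After ~16 h, SMAD7 mRNA measured by RT-qPCR (RTS5062), normalised to RIBOGREEN total RNA. Percent inhibition vs untreated cells; IC50 derived.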

[2] = test system: human SMAD7 mRNA; assay: Antisense inhibition of human SMAD7 mRNA expression in Hep3B cells by 3-10-3 cEt gapmers, 10,000 nM, electroporation (Example 2); type: cell-based; settings: approximately 24 hours; for % inhibition of SMAD7 mRNA expression: electroporation, 10,000 nM antisense oligonucleotide, RTS5062, relative to untreated control cells
Outline: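 Hep3B, 20,000 cells/well; electroporation, 10,000 nM ASO; ~24 h. Readout: SMAD7 mRNA by qRT-PCR (RTS5062), RIBOGREEN-normalised; % inhibition vs untreated.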

[3] = 740 nM, Study 2, relative to untreated control cells
[4] = Hep3B cells, electroporation with 10,000 nM antisense oligonucleotide, RTS5062, percent inhibition of SMAD7 mRNA relative to untreated control cells
[5] = SMAD7 mRNA, Hep3B cells, 10,000 nM antisense oligonucleotide, electroporation, primer probe set RTS5062, relative to untreated control cells

Substance	% inhibition of SMAD7 mRNA expression [1, 3]	% inhibition of SMAD7 mRNA expression ([1]; 2220 nM, Study 2)	% inhibition of SMAD7 mRNA expression ([1]; 6670.0 nM, Study 2)	% inhibition of SMAD7 mRNA expression ([1]; 20000.0 nM, Study 2)	IC50 [1]	% inhibition of SMAD7 mRNA expression ([2]; Hep3B cells) [%]	% Inhibition [2, 4] [%]	% Inhibition [2, 5] [%]
799563 (kA*kA*kA*dA*d[5mC]*dA*dA*dA*d[5mC]*dA*dA*dG*dG*kG*kT*k[5mC]; antisense) [compound 799563]	32%	57%	85%	88%	5000 nM	68		
799564 (k[5mC]*kA*kG*dA*dT*dA*dA*d[5mC]*dA*dG*dA*dG*dT*kA*kT*kA; antisense) [compound 799564]	13%	41%	60%	73%	3000 nM		70	
799565 (kA*kG*kT*dA*dA*dA*d[5mC]*dA*dA*dT*dA*d[5mC]*d[5mC]*k[5mC]*kT*k[5mC]; antisense) [compound 799565]	23%	49%	67%	86%	11000 nM		79	
799566 (kG*kA*kG*dT*dA*dA*dA*d[5mC]*dA*dA*dT*dA*d[5mC]*k[5mC]*k[5mC]*kT; antisense) [compound 799566]	0% and 10%	32% and 64%	63% and 82%		2000 nM and 1000 nM		74	89
799568 (k[5mC]*kA*kT*dT*dA*dG*dA*dA*dG*d[5mC]*dT*dT*dT*kG*kA*kG; antisense) [compound 799568]	49%	58%	84%	92%	6000 nM		62	
799572 (kA*k[5mC]*k[5mC]*dA*dT*d[5mC]*dT*dA*dA*d[5mC]*dA*dA*d[5mC]*kA*kT*k[5mC]; antisense) [compound 799572]	0%	35%	62%	66%	1000 nM		79	55
799577 (kT*kT*k[5mC]*d[5mC]*dG*dA*dA*dA*dG*dG*dA*d[5mC]*d[5mC]*k[5mC]*kT*kT; antisense) [compound 799577]	35%	64%	75%	86%	2000 nM	55		
799583 (kA*kA*kG*dA*d[5mC]*dA*dA*dA*d[5mC]*d[5mC]*dT*dT*d[5mC]*k[5mC]*kG*kA; antisense) [compound 799583]	26% and 31%	61% and 46%	73% and 59%	65% and 83%	3000 nM		74	74
799589 (kA*kA*kT*dA*dT*d[5mC]*dT*dG*dT*dG*dT*d[5mC]*dT*kA*k[5mC]*kA; antisense) [compound 799589]	15%	58%	77%	82%	4000 nM		65	
799596 (kA*k[5mC]*kT*d[5mC]*dT*dG*dA*dA*d[5mC]*dG*dG*dA*dA*kA*kG*kA; antisense) [compound 799596]	14%	35%	66%	83%	5000 nM	49		
799605 (k[5mC]*k[5mC]*kA*dA*dT*dA*dA*dA*dG*dT*dT*d[5mC]*d[5mC]*k[5mC]*kT*kT; antisense) [compound 799605]	18%	46%	51%	75%	8000 nM		56	
799607 (k[5mC]*k[5mC]*kA*dT*dT*dT*dA*d[5mC]*dA*dA*dA*dA*d[5mC]*kT*k[5mC]*kT; antisense) [compound 799607]	5%	12%	46%	76%	2000 nM		71	
799608 (kA*k[5mC]*kG*dA*dT*d[5mC]*dA*dA*d[5mC]*dT*dT*d[5mC]*dT*kT*kG*kA; antisense) [compound 799608]	35%	56%	70%	76%	3000 nM		70	
799624 (kT*kG*kA*dA*dA*dG*dT*dA*d[5mC]*dA*dA*dT*d[5mC]*kT*k[5mC]*k[5mC]; antisense) [compound 799624]	2%	50%	77%	89%	6000 nM		58	
799631 (k[5mC]*k[5mC]*kA*dA*dA*dT*d[5mC]*dA*d[5mC]*dA*dA*dA*dG*k[5mC]*kA*kG; antisense) [compound 799631]	0%	25%	49%	88%	3000 nM		82	
799663 (antisense kG*k[5mC]*kA*d[5mC]*dA*dG*d[5mC]*d[5mC]*dA*dA*dG*dA*dG*kA*kT*kG) [compound 799663]	19%	43%	61%	89%	> 20000 nM		57	
799667 (antisense kA*k[5mC]*kA*dG*dA*dT*dG*d[5mC]*d[5mC]*dA*dG*d[5mC]*dA*kA*kG*kG) [compound 799667]	8%	8%	17%	47%	9000 nM		79	
799668 (antisense kG*kA*k[5mC]*dA*dG*dA*dT*dG*d[5mC]*d[5mC]*dA*dG*d[5mC]*kA*kA*kG) [compound 799668]	15%	17%	39%	72%	1000 nM		75	
799669 (antisense kT*kA*kT*dG*dA*d[5mC]*dA*dG*dA*dT*dG*d[5mC]*d[5mC]*kA*kG*k[5mC]) [compound 799669]	47%	72%	82%	95%	3000 nM		81	
799671 (antisense kA*kG*kG*dT*dA*dT*dT*dT*dT*dT*dG*dA*dA*kG*kG*k[5mC]) [compound 799671]	22%	56%	71%	74%	2000 nM		59	
799673 (antisense k[5mC]*kT*kG*dA*dT*dT*dA*dA*d[5mC]*dT*dT*dT*d[5mC]*k[5mC]*kT*kT) [compound 799673]	29%	66%	74%	86%	4000 nM	64		
799674 (antisense kG*kA*kT*d[5mC]*dA*d[5mC]*dA*dA*dT*dT*d[5mC]*d[5mC]*dA*kA*kG*k[5mC]) [compound 799674]	16%	35%	64%	91%	14000 nM	48		
799686 (antisense kG*kA*kG*dA*dT*dT*dT*dT*dA*dA*dA*dT*dG*k[5mC]*kT*kG) [compound 799686]	18%	35%	36%	56%	2000 nM		62	
799689 (antisense kT*kG*k[5mC]*dT*dA*d[5mC]*dA*dG*dT*dG*dT*d[5mC]*dA*k[5mC]*k[5mC]*kA) [compound 799689]	34%	49%	65%	73%	5000 nM		63	
